Source: PMC6896740, “Safety, tolerability, pharmacokinetics, and pharmacodynamics of PF-06650833, a selective interleukin-1 receptor-associated kinase 4 (IRAK4) inhibitor, in single and multiple ascending dose randomized phase 1 studies in healthy subjects” (Arthritis Research & Therapy, 2019)

Assays:
clinical = settings: human, in vivo; for AUC(0-t): AUClast; for Tmax: median (range); for Vd/F: Vz/F
Description: (§1) Study 1 (B7921001; NCT02224651) was a 96-day, phase 1, within-cohort, randomized, double-blind, sponsor-open, placebo-substitution, five-period crossover, SAD study in healthy adult subjects (Fig. 1a). Subjects were sequentially enrolled into four cohorts of ten subjects each. Within each cohort, the subjects were randomized into a maximum of five periods. Within each period, eight subjects and two subjects were randomized to receive PF-06650833 and placebo, respectively. In this placebo-substitution design, all subjects within a cohort received one or more doses of PF-06650833 and/or placebo. Single oral doses of PF-06650833 IR formulations from 1 to 6000 mg, and MR formulations from 30 to 300 mg, were administered in fasted (overnight fast of ≥ 10 h) and/or fed (high-fat breakfast meal) states. Doses were escalated sequentially by period within each cohort (see Fig. 1a for final dosing scheme), based upon the evaluation of ≥ 48 h of safety and tolerability for all subjects and ≥ 8 h of PK data for at least six subjects receiving PF-06650833 and one subject receiving placebo. Dose escalation was to cease when either the limits of safety and/or tolerability were reached, the projected exposure at the subsequent dose exceeded the toxicokinetic limit (TK) established based on the no observable adverse effect level (NOAEL) in relevant animal studies, or a plateau in exposure was reached.
(§2) The effects of food on the plasma PK profile of the IR and MR formulations were explored in cohorts 1 and 3, respectively, by administering 30 mg doses of PF-06650833 in a fasted state and after a high-fat meal. A 1000-mg dose of the IR formulation was also tested in cohort 3 in an attempt to identify a maximum tolerated dose (MTD). Since TK limits were not reached with the IR formulation at doses up to 1000 mg, the IR doses were escalated to 2000 and 6000 mg with a high-fat meal in cohort 4 (Fig. 1a).
For both studies, samples of blood (and urine in study 2) were taken for evaluation of PK/PD parameters (see Additional file 1: Supplemental Methods). PK samples were obtained at the nominal time relative to dosing (± 10%). Plasma and urine samples were analyzed using validated, sensitive, and specific liquid chromatography tandem mass spectrometric methods (at Pfizer Inc., Groton, CT, USA, for study 1 and at Worldwide Pharmacokinetics, Dynamics and Metabolism, Cambridge, MA, USA, for study 2). The lower limit of quantification for PF-06650833 in plasma was 0.0500 ng/mL. The lower limit of quantification for PF-06650833 in urine was 1.00 ng/mL. Serum samples were also analyzed for hsCRP, and plasma samples were analyzed for 4β-hydroxycholesterol and cholesterol.
PK parameters were calculated using non-compartmental analysis of concentration-time data. For study 1 only, data from cohort 1 (period 4 [IR 30 mg] versus period 5 [IR 30 mg + food]) and cohort 3 (period 2 [MR 30 mg] versus period 3 [MR 30 mg + food]) were used to estimate the effect of food intake. Cmax and AUC were calculated for each subject and treatment, with and without food, after which a within-subject difference could be found between fed (high-fat meal) and fasted doses. Analysis of covariance was used to model these within-subject differences and to calculate 95% confidence intervals (CIs) for the differences for each dose (IR 30 mg and MR 30 mg). For study 2 only, the amounts of PF-06650833 in urine and renal clearance were listed and summarized descriptively. As part of the routine safety laboratory monitoring, the presence of any atypical crystals in urine specimens was semi-quantitatively assessed microscopically by typical histopathologic methods and scored as numbers of crystals per high power field (hpf); higher abundance (moderate or many) was defined as ≥ 15/hpf. No formal interim analyses were conducted.
4 In both studies, subjects were assigned to dose groups according to a pre-defined
5 randomization schedule. Each subject was given a unique Electronic Data Capture […]

healthy adult subjects = test: Study 1 (SAD) safety and tolerability: TEAEs; format: in vivo
Description: as §1, §2
Safety assessments included incidence and severity of treatment-emergent AEs (TEAEs) and discontinuation due to TEAEs, incidence of treatment-emergent clinical laboratory abnormalities, and proportion of subjects meeting with pre-defined criteria for potential clinical concern in vital signs and electrocardiogram (ECG) parameters.
The safety analysis set was defined as all subjects who received at least one dose of study treatment, and data were summarized descriptively. The PK concentration analysis set was defined as all enrolled, treated subjects who had at least one concentration in at least one treatment period. The PK parameter analysis set was defined as all enrolled, treated subjects who had at least one of the PK parameters of interest in at least one treatment period. The PD analysis set was defined as all enrolled subjects who received at least one dose of PF-06650833 and had at least one PD parameter. PK/PD data were summarized descriptively.

[1] = IR 2000 mg single dose, fed (high-fat), 8 evaluable

CC[C@@H]1[C@H](F)C(=O)N[C@@H]1COc1nccc2cc(C(N)=O)c(OC)cc12 [PF-06650833, 1-{[(2S,3S,4S)-3-Ethyl-4-fluoro-5-oxopyrrolidin-2-yl]methoxy}-7-methoxyisoquinoline-6-carboxamide]
Mean terminal half-life t½ (clinical): 9.4 to 11.7 h
CL/F, geometric mean (%CV) (clinical; 1 mg): 194.3 (37) L/h
AUC(0-inf) (clinical; 1 mg, AUCinf, geometric mean (%CV)): 5.14 ng·h/mL
AUC(0-t) (clinical; 1 mg, geometric mean (%CV)): 4.92 ng·h/mL
Cmax (clinical; 1 mg, geometric mean (%CV)): 1.75 ng/mL
MRT (clinical; 1 mg, mean ± SD): 3.12 ± 0.525 h
Tmax (clinical; 1 mg): 1 h
Vd/F (clinical; 1 mg, geometric mean (%CV)): 517 L
half-life (clinical; 1 mg, t½, mean ± SD): 1.86 ± 0.24 h
CL/F, geometric mean (%CV) (clinical; 3 mg): 173.1 (49) L/h
AUC(0-inf) (clinical; 3 mg, AUCinf, geometric mean (%CV)): 17.3 ng·h/mL
AUC(0-t) (clinical; 3 mg, geometric mean (%CV)): 17 ng·h/mL
Cmax (clinical; 3 mg, geometric mean (%CV)): 5.54 ng/mL
MRT (clinical; 3 mg, mean ± SD): 3.4 ± 0.622 h
Tmax (clinical; 3 mg): 0.525 h
Vd/F (clinical; 3 mg, geometric mean (%CV)): 567 L
half-life (clinical; 3 mg, t½, mean ± SD): 2.34 ± 0.67 h
CL/F, geometric mean (%CV) (clinical; 10 mg): 121.0 (48) L/h
AUC(0-inf) (clinical; 10 mg, AUCinf, geometric mean (%CV)): 82.7 ng·h/mL
AUC(0-t) (clinical; 10 mg, geometric mean (%CV)): 81.9 ng·h/mL
Cmax (clinical; 10 mg, geometric mean (%CV)): 22.6 ng/mL
MRT (clinical; 10 mg, mean ± SD): 4.31 ± 0.787 h
Tmax (clinical; 10 mg): 1 h
Vd/F (clinical; 10 mg, geometric mean (%CV)): 618 L
half-life (clinical; 10 mg, t½, mean ± SD): 3.54 ± 0.139 h
AUCinf (food-effect analysis) (clinical; 30 mg): 211.3 ng·h/mL
AUCinf, geometric mean (%CV) (clinical; 30 mg): 206.4 (29) ng•h/mL
AUClast, geometric mean (%CV) (clinical; 30 mg): 203.7 (29) ng•h/mL
AUC(0-inf) (clinical; 30 mg, AUCinf (food-effect analysis)): 261 ng·h/mL
AUC(0-inf) (clinical; 30 mg, AUCinf, geometric mean (%CV)): 263 ng·h/mL
AUC(0-t) (clinical; 30 mg, geometric mean (%CV)): 249 ng·h/mL
AUCinf, geometric mean (%CV) (clinical; 100 mg): 646.4 (48) ng•h/mL
AUClast, geometric mean (%CV) (clinical; 100 mg): 549.4 (38) ng•h/mL
MRT, mean ± SD (clinical; 100 mg): 11.2 ± 4.81 h
t½, mean ± SD (clinical; 100 mg): 15.0 ± 5.22 h
AUC(0-inf) (clinical; 100 mg, AUCinf, geometric mean (%CV)): 839 ng·h/mL
AUC(0-t) (clinical; 100 mg, geometric mean (%CV)): 762 ng·h/mL
MRT (clinical; 100 mg, mean ± SD): 19.3 ± 5.73 h
half-life (clinical; 100 mg, t½, mean ± SD): 9.35 ± 3.62 h
AUCinf, geometric mean (%CV) (clinical; 300 mg): 1477 (71) ng•h/mL
AUClast, geometric mean (%CV) (clinical; 300 mg): 1436 (57) ng•h/mL
Tmax, median (range) (clinical; 300 mg): 2 (0.500–2.00) h
Vz/F, geometric mean (%CV) (clinical; 300 mg): 5310 (69) L
t½, mean ± SD (clinical; 300 mg): 19.9 ± 9.54 h
AUC(0-inf) (clinical; 300 mg, AUCinf, geometric mean (%CV)): 2040 ng·h/mL
AUC(0-t) (clinical; 300 mg, geometric mean (%CV)): 1970 ng·h/mL
Tmax (clinical; 300 mg): 4 h
Vd/F (clinical; 300 mg, geometric mean (%CV)): 6820 L
half-life (clinical; 300 mg, t½, mean ± SD): 38.8 ± 21.1 h
CL/F, geometric mean (%CV) (clinical; 1000 mg): 411.4 (40) L/h
AUC(0-inf) (clinical; 1000 mg, AUCinf, geometric mean (%CV)): 2430 ng·h/mL
AUC(0-t) (clinical; 1000 mg, geometric mean (%CV)): 2270 ng·h/mL
Cmax (clinical; 1000 mg, geometric mean (%CV)): 309 ng/mL
MRT (clinical; 1000 mg, mean ± SD): 18.7 ± 4.37 h
Tmax (clinical; 1000 mg): 0.75 h
Vd/F (clinical; 1000 mg, geometric mean (%CV)): 14600 L
half-life (clinical; 1000 mg, t½, mean ± SD): 44.9 ± 69.6 h
half-life (clinical; Mean terminal half-life t½): 10.2 to 15 h
Infections and infestations: subjects with AE, all causalities (treatment-related) (healthy adult subjects; IR 1 mg single dose, fasted, 8 evaluable): 1 (0)
Infections and infestations: subjects with AE, all causalities (treatment-related) (healthy adult subjects; [1]): 1 (0)
Upper respiratory tract infection: subjects with AE, all causalities (treatment-related) (healthy adult subjects; [1]): 1 (0)
Serious AEs or deaths (healthy adult subjects; all dose groups): No serious AEs or deaths
Subjects with treatment-related TEAEs (healthy adult subjects; human, in vivo): 4
Total treatment-related TEAEs (healthy adult subjects; human, in vivo): 10
Severity of TEAEs (healthy adult subjects; in vivo): mild or moderate
Treatment-related TEAEs (healthy adult subjects; in vivo): No treatment-related TEAEs
Maximum tolerated dose (healthy adult subjects; single doses IR up to 6000 mg, MR up to 300 mg): not established
